In patent US10815283B2, “Peptides for treatment of diabetes” (Follicum AB, priority 2017, dated 2020):
“Also recorded” adds a separate entry of the source. No end group written: not given here.

What was measured:
mouse pancreatic islets = test: Insulin secretion from isolated mouse pancreatic islets (Examples 5 and 7); format: cell-based; conditions: 60 min
Method: Mouse pancreatic islets were isolated from 8-week old C57BL/6J male mice (Taconic). Mice were sacrificed by an overdose of isoflurane and cervical dislocation. 3 ml of 0.9 U/ml collagenase P was injected into the pancreatic duct to inflate the pancreas. The pancreas was then removed and collagen digested for 19 min at 37° C. The samples were vigorously shaken to disrupt the tissue. The digest was transferred into ice cold Hank's Balanced Salt Solution (HBSS) with Ca^2+ and Mg^2+. The suspension was allowed to sit for 10 min to allow the islet to sink, and the islets were washed in fresh HBSS four times. The islets were then hand-picked and sorted according to size. Islets (n=3 per well in a 96 well plate) were pre-incubated in KRB buffer during 10 min 37° C., pH 7.4, supplemented with 10 mM HEPES, 0.1% bovine serum albumin. After pre-incubation, the buffer was changed and islets were incubated at different test conditions in new KRB buffer with 0.1% bovine serum albumin (non-treated ctrl, FOL-005 peptide, or GLP-1) for 60 min at 37° C. Immediately after incubation, an aliquot of the buffer was removed and frozen for subsequent assay of insulin.
Mouse pancreatic islets were isolated from 8-week old C57BL/6J male mice as described under example 5. The islets were then hand-picked and sorted according to size. Islets (n=5 per well in a 96 well plate) were pre-incubated in 200 μl KRB buffer during 10 min 37° C., pH 7.4, supplemented with 10 mM HEPES, 0.1% bovine serum albumin. Following pre-incubation, the buffer was changed and islets were incubated in different test conditions in new KRB buffer with 0.1% bovine serum albumin (non-treated ctrl, FOL-014 peptide, and GLP-1) for 60 min at 37° C. Immediately after incubation, an aliquot of the buffer was removed and frozen for subsequent assay of insulin.

isolated mouse islets = test: Insulin and glucagon secretion from isolated mouse islets at low and high glucose (Example 12); format: cell-based; conditions: 100 nM GLP-1, 1 h
Method: Twelve-week-old male C57/bl6 mice were euthanized with isoflurane and cervical dislocation. After clamping the hepatic ducts, 3 ml of 0.9 U/ml collagenase P was injected into the bile duct to inflate the pancreas. The pancreas was then removed and digested for 19 min at 37° C. The samples were vigorously shaken to disrupt the tissue. The digest was quickly transferred into ice cold Hank's Balanced Salts Solution with Ca^2+ and Mg^2+. The suspension was allowed to sit for 8 min to allow the islet to sink, and the islets were washed in the same manner four times. The islets were then handpicked and sorted according to size.
Freshly isolated islets were seeded in groups of 5 in a 96-well plate and preincubated for 1 h at 37° C. in a Krebs-Ringer bicarbonate buffer (pH 7.4). The islets were incubated for 1 h at 37° C. in Krebs-Ringer buffered solution supplemented with 0.6 or 6 μM FOL-014 or 100 nM GLP-1 or left unsupplemented for control. Immediately after incubation, the medium was removed for assays of insulin and glucagon using Mercodia's ELISA kits. The effect of FOL-014 on insulin (FIGS. 8A and B) and glucagon (FIGS. 8C and D) secretion from isolated mouse islets was measured in the presence of low glucose (2.8 mM; FIGS. 8A and C) or high glucose (16.7 mM; FIGS. 8B and D) concentrations.

INS-1 cells [1] = test: Proliferation of INS-1 cells, [methyl-3H] thymidine incorporation; format: cell-based, rat
Method: To investigate if FOL-005 and FOL-014 could induce proliferation of β-cells we used INS-1 cells. Rat INS-1 cells were seeded in 96-well plates in RPMI medium with supplement and after 2 hours the medium was changed to RPMI without supplement. During the proliferation experiment the cells were incubated at different test conditions (FOL-005, FOL-014, coated or in solution, 48 h incubation) and during the last 20 hours of culture period the cells were pulsed with 1μ Ci/well of [methyl-3H] thymidine. The cells were then harvested onto glass fiber filters using a FilterMate harvester. The filters were air dried, and the bound radioactivity was measured using a liquid scintillation counter. To study whether FOL-005 influenced β-cell proliferation, INS-1 cells were treated with increasing amounts of soluble FOL-005 (0.06-6 μM) during 48 hours and proliferation was measured with radiolabeled thymidine incorporation into newly synthesized DNA.

INS-1 cells [2] = test: Glucotoxicity-induced apoptosis in INS-1 cells (Annexin V staining, caspase-3 activity); format: cell-based, rat; conditions: 20 mM glucose, 48 h, vs 20 mM glucose alone
Method: Since glucotoxicity in pancreatic β-cells is a well-established process in type 2 diabetes we next investigated the protective effects of FOL-005 on β-cells during glucotoxic conditions. First we confirmed that 20 mM glucose induced cell apoptosis in INS cells after 48 h of exposure. High glucose (20 mM) containing RPMI medium induced more Annexin V positive cells and more caspase-3 activity in INS cells compared to cells incubated with medium containing 5 mM glucose (FIG. 2A-B). […] The rate of apoptosis in INS-1 cells was measured with either Caspase-3 Assay Kit or stained with Annexin V Apoptosis Detection Kit with 7-AAD. Caspase-3 activity was measured with fluorescence at an excitation wavelength of 380 nm and an emission wavelength of 440 nm. Caspase-3 activity was then normalized to protein concentration in each well. Measurements of Annexin V stained cells were performed using a CyAn ADP flow cytometer and analyzed with Summit V4.3 software.

INS-1 β-cells = test: Insulin secretion from INS-1 cells, insulin radioimmunoassay (Examples 4 and 6); format: cell-based, rat; conditions: peptide 6 μM, 60 min
Method: To investigate the stimulatory effect of FOL-005 on insulin secretion, INS-1 β-cells were used in the following experiments. Cells were seeded overnight in cRPMI and then washed with PBS before pre-incubation for 60 min at 37° C. in Krebs-Ringer bicarbonate buffer (KRB), pH 7.4, supplemented with 10 mM HEPES, 0.1% bovine serum albumin. After pre-incubation, the buffer was changed and the INS-1 cells were incubated at different test conditions (0 mM, 5 mM or 20 mM glucose) and stimulated with peptide FOL-005 or FOL-015 (SEQ ID NO: 158) or left untreated during 60 min at 37° C. Immediately after incubation, an aliquot of the buffer was removed and frozen for subsequent assay of insulin with an insulin radioimmunoassay kit.
INS-1 β-cells were used to investigate the stimulatory effect of FOL-014 on insulin secretion. Cells were seeded overnight and then washed with PBS before pre-incubation for 60 min at 37° C. in Krebs-Ringer bicarbonate buffer (KRB), pH 7.4, supplemented with 10 mM HEPES, 0.1% bovine serum albumin. After pre-incubation, the buffer was changed and the INS-1 cells were incubated in new KRB buffer supplemented with 10 mM HEPES, 0.1% bovine serum albumin and stimulated with peptide FOL-014 or left untreated during 60 min at 37° C. Immediately after incubation, an aliquot of the buffer was removed and frozen for subsequent assay of insulin.

[3] = Distribution of H3 labelled peptide, whole body sectioning; format: in vivo, mouse; conditions: subcutaneous, C57Bl/6 mice, 1 h and 2 h after injection
Method: C57Bl/6 mice were injected subcutaneously with H^3 labelled FOL-005 and euthanized at 1 h (FIG. 12A) or 2 h (FIG. 12B) after injection. Following whole body sectioning the distribution of the labelled peptide was visualised. […] Using Pearl Trilogy Small Animal Imaging System, in vivo bio-distribution and tissue localization of two Cy7.5 labelled peptides, FOL-005 (FIG. 12C) and FOL-014 (FIG. 12D) in NMRI nude mice via subcutaneous injection was investigated. […] The dose of each peptide was 10 nmol per mouse. The mice were imaged before injection, at 5 min, 20 min, 50 min, 60 min, 2 hrs, 4 hrs, 6 hrs, 24 hrs and 48 hrs post administration of labelled peptide.

[4] = In vivo bio-distribution of Cy7.5 labelled peptides, Pearl Trilogy Small Animal Imaging System; design: species or system mouse; conditions: Cy7.5 labelled peptide

| Substance | insulin secretion (mouse pancreatic islets; Example 5, 3 islets per well, GLP-1 100 nM) | insulin secretion (mouse pancreatic islets; Example 7, 5 islets per well, GLP-1 100 nM) | glucagon secretion (isolated mouse islets; high glucose (16.7 mM)) | insulin secretion (isolated mouse islets; high glucose (16.7 mM)) | glucagon secretion (isolated mouse islets; low glucose (2.8 mM)) | insulin secretion (isolated mouse islets; low glucose (2.8 mM)) | INS-1 cell proliferation (radiolabeled thymidine incorporation) (INS-1 cells [1]; soluble peptide 0.06-6 μM, 48 hours) | INS-1 cell proliferation (radiolabeled thymidine incorporation) (INS-1 cells [1]; wells coated with peptide and blocked with BSA, vs control coated wells) | cell apoptosis, Annexin V staining (INS-1 cells [2]) | cell apoptosis, caspase-3 activity (INS-1 cells [2]) | insulin secretion (INS-1 β-cells; 5 mM glucose) | insulin secretion (INS-1 β-cells; 20 mM glucose) | insulin secretion (INS-1 β-cells; conditions without glucose) | insulin secretion (mouse pancreatic islets; Example 5, 3 islets per well, peptide 6 μM) | tissue distribution of radioactivity [3] | bio-distribution and tissue localization ([4]; i.v. administration (not shown)) | bio-distribution and tissue localization ([4]; subcutaneous, 10 nmol per mouse, NMRI nude mice, 5 min to 48 hrs) |
| --- | --- | --- | --- | --- | --- | --- | --- | --- | --- | --- | --- | --- | --- | --- | --- | --- | --- |
| glucagon-like peptide-1 (HAEGTFTSDVSSYLEGQAAKEFIAWLVKGR; ends and bridges not checked; UniProt P01275 98-127, looked up) [GLP-1, metabolic hormone that stimulates insulin secretion; native GLP-1 used as comparator] | secreted more insulin compared to unstimulated control islets | did not affect insulin secretion | efficiently reduced glucagon secretion | significantly increased insulin secretion | failed to inhibit glucagon secretion in low glucose conditions | enhanced insulin secretion also in low glucose samples | – | – | – | – | – | – | – | – | – | – | – |
| VDTYDGDISVVYGLR ((1)..(15) peptide, FOL-005) | – | – | – | – | – | – | stimulated INS-1 cell proliferation | stimulated proliferation compared to control (ctrl) coated wells | decreased cell apoptosis | decreased cell apoptosis | responded with insulin secretion | responded with more insulin secretion compared to FOL-005 stimulated cells incubated with 5 mM glucose | secreted more insulin compared to unstimulated control cells | secreted more insulin compared to unstimulated control islets | Strong binding was evident in pancreas and at the site of injection; also recorded: also visible in liver, kidney, salivary glands | same distribution pattern | High accumulation of the peptide was evident in the pancreatic tissue area |
